A short description of data set [1]: Qualitative non-targeted LC-HRMS analysis of AR compounds in rat plasma after oral AR or MBST. The data set is classed as in vivo. The note with it: for AR-Treated Rat Plasma (detection of compound): rat plasma 1 h after oral 2 g/kg AR, n = 1, LC-HRMS. How it is done: Extract powders of AR or MBST were suspended in distilled water and orally administered to rats having fasted for approximately 16 h. The dose of AR was set at 2 g/kg, and the MBST doses were set at 1 and 2 g/kg. 1 g/kg MBST contained 578 µg/kg, 147 µg/kg, 226 µg/kg, 426 µg/kg asarinin, sesamin, methyl kakuol, and amide A, respectively. The doses were chosen based on a previous pharmacological study of MBST using rats.
According to previous pharmacokinetic studies of herbal medicines, many of the components were quickly absorbed into the bloodstream, thereby providing the rationale for a sampling time at 1 h. Blood was centrifuged at 1200× g at 4 °C for 30 min to obtain plasma; then, the sample was stored at −80 °C until LC-HRMS analysis. […]
The plasma samples were collected at 1 h after MBST administration in case of both the qualitative (non-targeted) analysis and the quantitative (targeted) analysis.
The plasma samples of AR- or MBST-treated rats collected at 1 h post-administration were pretreated by deproteinization using methanol before the LC-HRMS analysis as follows: 100 µL plasma sample was mixed with 500 µL methanol, and the resultant solution was vortexed for 2 min. The mixture was centrifuged at 7000× g at 4 °C for 5 min. The supernatant was dried using a centrifugal evaporator, and the dried residue was dissolved in 100 μL of the initial LC mobile phase which is composed of 0.1 vol% formic acid in water/acetonitrile (99.9/0.1, v/v) and recentrifuged at 7000× g at 4 °C for 5 min. Finally, a 5 μL aliquot of the supernatant was injected into the LC-HRMS system comprised of an Acquity Ultra-Performance Liquid Chromatography System (Waters, Milford, MA, USA) and a Xevo G2-XS quadrupole time-of-flight MS (Waters) and was chromatographically separated using an ACQUITY UPLC HSS T3 column (2.1 × 150 mm I.D., 1.8-μm particle size; Waters) with an ACQUITY UPLC HSS T3 VanGuard Pre-column (2.1 mm × 5 mm I.D., 1.8-μm particle size; Waters) at 40 °C. The mobile phase consisted of solution A (0.1% formic acid, v/v) and solution B (acetonitrile) with a gradient of solution B (0.1%, 0 min; 99%, 24 min; v/v) at a flow rate of 0.4 mL/min. The analysis of the mass spectrometer fit with an electrospray ionization probe with sensitivity mode was performed for both the positive and negative ion mode. The resolution of the mass spectrometer was set at >20,000. For MS^E experiments, two acquisition functions with different collision energies were created: a low-energy function with a collision energy of 6 eV and a high-energy function with collision energy ranging from 15 to 40 eV.

The target in another data set is T1, human TRPV1 (Homo sapiens, UniProt Q8NER1).
T1 construct: Each full-length human TRPA1, TRPV1, TRPV4, and TRPM8 coding regions were introduced into a pcDNA4/TO vector; expressed in transfected cells; host or cells: T-REx-293 cells (tetracycline-induced, pcDNA4/TO vector)
T1 sequence (Q8NER1 whole entry): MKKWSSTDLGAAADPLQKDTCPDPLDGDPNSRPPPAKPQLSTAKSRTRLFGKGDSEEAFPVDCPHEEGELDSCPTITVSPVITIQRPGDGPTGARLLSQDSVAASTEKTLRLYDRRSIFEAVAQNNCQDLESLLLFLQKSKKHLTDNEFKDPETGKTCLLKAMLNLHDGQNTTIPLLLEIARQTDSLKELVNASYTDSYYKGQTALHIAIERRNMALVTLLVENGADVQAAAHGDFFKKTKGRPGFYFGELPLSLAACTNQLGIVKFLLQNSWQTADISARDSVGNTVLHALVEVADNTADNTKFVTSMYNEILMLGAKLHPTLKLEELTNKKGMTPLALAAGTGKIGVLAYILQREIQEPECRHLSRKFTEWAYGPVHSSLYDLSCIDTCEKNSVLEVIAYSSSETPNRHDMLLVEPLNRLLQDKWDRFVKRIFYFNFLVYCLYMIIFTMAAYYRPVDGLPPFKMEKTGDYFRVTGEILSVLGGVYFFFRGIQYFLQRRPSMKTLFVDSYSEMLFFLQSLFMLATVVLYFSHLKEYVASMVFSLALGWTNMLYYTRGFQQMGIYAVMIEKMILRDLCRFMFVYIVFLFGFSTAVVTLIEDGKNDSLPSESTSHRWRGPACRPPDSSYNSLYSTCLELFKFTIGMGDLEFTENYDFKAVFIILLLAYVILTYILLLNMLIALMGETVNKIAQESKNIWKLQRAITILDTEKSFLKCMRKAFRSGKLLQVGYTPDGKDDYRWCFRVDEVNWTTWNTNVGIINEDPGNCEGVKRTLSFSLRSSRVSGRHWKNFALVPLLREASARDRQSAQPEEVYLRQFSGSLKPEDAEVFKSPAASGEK
As to the kind of experiment: Ca2+ influx assay in TRPV1-expressing T-REx-293 cells. The data set is classed as cell-based. The note with it: 10 µmol/L test compound, relative to 2 µmol/L capsaicin; for activation at 10 µM: T-REx-293, read-out: % of Activation Compared to Positive Control against Each Subfamily of TRP Channel TRPV1. How it is done: (§1) Each full-length human TRPA1, TRPV1, TRPV4, and TRPM8 coding regions were introduced into a pcDNA4/TO vector (Thermo Fisher Scientific, Waltham, MA, USA) and transfected into T-REx-293 cells (Thermo Fisher Scientific) to obtain stable cell lines expressing human TRPA1, TRPV1, TRPV4, and TRPM8. Cells were cultured in DMEM with 10% FBS, 4 mmol/L L-glutamine, and penicillin/streptomycin.
(§2) Cells were suspended in medium with 1 µg/mL tetracycline and seeded in poly-D-lysine coated 96-well plate at 2.5 × 10^4 cells/well. After overnight culture, the cells were used for Ca^2+ influx assay.
(§3) The Ca^2+ influx assay was performed using a FLIPR Calcium 5 Assay Kit (Molecular Devices, Sunnyvale, CA, USA) according to previously reported methods with minor modifications. In brief, cells were incubated with 80 µL Ca^2+-chelating dye dissolved in assay buffer at pH 7.4 (Hanks’ Balanced Salt Solution containing 20 mmol/L of N-2-hydroxyethylpiperazine-N’-2-ethanesulfonic acid) at room temperature for 30 min. The plates were assayed using a FlexStation 3 Microplate Reader (Molecular Devices). The fluorescence intensity was traced entirely for 80 s. The baseline of fluorescence was measured for 20 s before adding 20 µL of test compound (final concentration, 10 µmol/L). The response was expressed as percentage activation using the relative fluorescence units (RFU) (% activation = 100 × ((RFUmax − RFUbaseline)/RFUbaseline) − 100). Furthermore, the activities of each test compound against several subfamilies of TRP channels were represented as the relative enhancement of Ca^2+ influx of each positive control, indicated as follows: 20 µmol/L of allyl isothiocyanate (an agonist of TRPA1), 2 µmol/L of capsaicin (an agonist of TRPV1), 4 µmol/L of GSK1016790A (an agonist of TRPV4), and 20 µmol/L of icilin (an agonist of TRPM8). The dose–response curve was fitted to the sigmoidal dose-response equation (top, the max response of each compound), and EC50 values were calculated using GraphPad Prism 7 software (GraphPad, San Diego, CA, USA).

A further data set deals with T2, human TRPA1 (Homo sapiens, UniProt O75762).
T2 construct: Each full-length human TRPA1, TRPV1, TRPV4, and TRPM8 coding regions were introduced into a pcDNA4/TO vector; expressed in transfected cells; host or cells: T-REx-293 cells (tetracycline-induced, pcDNA4/TO vector)
T2 sequence (O75762 whole entry): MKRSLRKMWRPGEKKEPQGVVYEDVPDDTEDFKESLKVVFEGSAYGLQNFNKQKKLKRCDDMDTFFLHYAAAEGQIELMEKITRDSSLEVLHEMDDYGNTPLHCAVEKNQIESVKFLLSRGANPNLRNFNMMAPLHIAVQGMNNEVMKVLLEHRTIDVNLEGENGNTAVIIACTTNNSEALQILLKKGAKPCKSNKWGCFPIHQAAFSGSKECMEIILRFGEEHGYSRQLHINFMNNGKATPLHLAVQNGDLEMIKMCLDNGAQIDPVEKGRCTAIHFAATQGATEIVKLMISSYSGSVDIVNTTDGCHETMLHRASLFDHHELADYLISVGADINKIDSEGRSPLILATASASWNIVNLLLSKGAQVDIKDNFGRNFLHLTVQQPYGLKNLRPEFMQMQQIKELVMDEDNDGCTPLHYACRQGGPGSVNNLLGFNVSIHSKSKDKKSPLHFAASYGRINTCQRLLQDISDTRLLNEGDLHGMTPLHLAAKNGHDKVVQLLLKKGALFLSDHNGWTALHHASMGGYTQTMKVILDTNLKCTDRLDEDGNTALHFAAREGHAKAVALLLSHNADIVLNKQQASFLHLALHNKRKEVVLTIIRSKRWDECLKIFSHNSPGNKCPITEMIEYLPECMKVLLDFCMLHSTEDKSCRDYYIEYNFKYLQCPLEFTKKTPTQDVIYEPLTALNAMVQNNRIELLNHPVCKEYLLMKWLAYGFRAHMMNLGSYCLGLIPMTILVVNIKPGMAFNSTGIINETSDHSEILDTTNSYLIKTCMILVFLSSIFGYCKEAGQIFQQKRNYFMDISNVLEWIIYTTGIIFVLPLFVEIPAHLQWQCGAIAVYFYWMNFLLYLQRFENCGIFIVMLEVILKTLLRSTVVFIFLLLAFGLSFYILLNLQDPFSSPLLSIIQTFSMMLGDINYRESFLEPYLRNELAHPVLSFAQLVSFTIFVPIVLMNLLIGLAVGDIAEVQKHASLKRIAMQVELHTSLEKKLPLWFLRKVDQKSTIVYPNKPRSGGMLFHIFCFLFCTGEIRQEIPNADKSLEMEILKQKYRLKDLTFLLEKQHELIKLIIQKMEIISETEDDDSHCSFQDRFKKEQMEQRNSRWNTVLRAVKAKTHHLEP
As to the kind of experiment: Ca2+ influx assay in TRPA1-expressing T-REx-293 cells. The data set is classed as cell-based. Particulars: 10 µmol/L test compound, relative to 20 µmol/L allyl isothiocyanate; for activation at 10 µM: T-REx-293, read-out: % of Activation Compared to Positive Control against Each Subfamily of TRP Channel TRPA1. On the procedure:
as §1, §2, §3

Another data set addresses T3, human TRPM8 (Homo sapiens, UniProt Q7Z2W7).
T3 construct: Each full-length human TRPA1, TRPV1, TRPV4, and TRPM8 coding regions were introduced into a pcDNA4/TO vector; expressed in transfected cells; host or cells: T-REx-293 cells (tetracycline-induced, pcDNA4/TO vector)
As to the kind of experiment: Ca2+ influx assay in TRPM8-expressing T-REx-293 cells. Particulars: 10 µmol/L test compound, relative to 20 µmol/L icilin; for activation at 10 µM: T-REx-293, read-out: % of Activation Compared to Positive Control against Each Subfamily of TRP Channel TRPM8. The data set is classed as cell-based. On the procedure:
as §1, §2, §3

The next data set has as its target T4, human TRPV4 (Homo sapiens, UniProt Q9HBA0).
T4 construct: Each full-length human TRPA1, TRPV1, TRPV4, and TRPM8 coding regions were introduced into a pcDNA4/TO vector; expressed in transfected cells; host or cells: T-REx-293 cells (tetracycline-induced, pcDNA4/TO vector)
Description: Ca2+ influx assay in TRPV4-expressing T-REx-293 cells. The data set is classed as cell-based. The note with it: 10 µmol/L test compound, relative to 4 µmol/L GSK1016790A; for activation at 10 µM: T-REx-293, read-out: % of Activation Compared to Positive Control against Each Subfamily of TRP Channel TRPV4. On the procedure:
as §1, §2, §3

T3 sequence (Q7Z2W7 whole entry): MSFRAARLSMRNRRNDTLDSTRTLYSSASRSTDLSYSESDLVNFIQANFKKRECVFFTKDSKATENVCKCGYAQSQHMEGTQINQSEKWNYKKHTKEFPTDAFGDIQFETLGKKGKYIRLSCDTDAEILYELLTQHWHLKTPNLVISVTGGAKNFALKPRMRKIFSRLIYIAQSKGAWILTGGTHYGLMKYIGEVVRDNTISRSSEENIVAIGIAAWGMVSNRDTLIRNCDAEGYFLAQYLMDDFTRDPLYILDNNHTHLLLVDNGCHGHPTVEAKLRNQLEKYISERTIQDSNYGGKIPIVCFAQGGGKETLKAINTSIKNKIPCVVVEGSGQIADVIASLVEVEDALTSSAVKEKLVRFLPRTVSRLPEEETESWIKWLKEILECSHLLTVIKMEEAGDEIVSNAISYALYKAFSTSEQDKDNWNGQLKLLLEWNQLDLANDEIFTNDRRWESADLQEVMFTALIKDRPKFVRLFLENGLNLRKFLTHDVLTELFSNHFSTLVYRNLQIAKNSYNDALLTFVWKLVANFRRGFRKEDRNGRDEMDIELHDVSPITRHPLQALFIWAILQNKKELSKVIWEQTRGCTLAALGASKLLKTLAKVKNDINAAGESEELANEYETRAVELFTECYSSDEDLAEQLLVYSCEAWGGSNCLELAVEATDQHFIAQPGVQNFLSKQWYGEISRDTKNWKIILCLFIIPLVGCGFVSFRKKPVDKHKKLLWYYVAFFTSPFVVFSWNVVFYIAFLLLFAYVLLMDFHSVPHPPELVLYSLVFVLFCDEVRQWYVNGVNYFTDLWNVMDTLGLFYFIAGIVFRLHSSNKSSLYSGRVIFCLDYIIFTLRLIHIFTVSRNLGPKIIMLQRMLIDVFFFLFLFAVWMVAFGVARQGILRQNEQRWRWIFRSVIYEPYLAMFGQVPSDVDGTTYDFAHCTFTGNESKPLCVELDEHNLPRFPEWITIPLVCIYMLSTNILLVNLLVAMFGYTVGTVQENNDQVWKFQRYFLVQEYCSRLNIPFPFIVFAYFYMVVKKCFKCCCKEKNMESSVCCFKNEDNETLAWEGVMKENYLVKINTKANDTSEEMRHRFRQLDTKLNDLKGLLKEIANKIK
T4 sequence (Q9HBA0 whole entry): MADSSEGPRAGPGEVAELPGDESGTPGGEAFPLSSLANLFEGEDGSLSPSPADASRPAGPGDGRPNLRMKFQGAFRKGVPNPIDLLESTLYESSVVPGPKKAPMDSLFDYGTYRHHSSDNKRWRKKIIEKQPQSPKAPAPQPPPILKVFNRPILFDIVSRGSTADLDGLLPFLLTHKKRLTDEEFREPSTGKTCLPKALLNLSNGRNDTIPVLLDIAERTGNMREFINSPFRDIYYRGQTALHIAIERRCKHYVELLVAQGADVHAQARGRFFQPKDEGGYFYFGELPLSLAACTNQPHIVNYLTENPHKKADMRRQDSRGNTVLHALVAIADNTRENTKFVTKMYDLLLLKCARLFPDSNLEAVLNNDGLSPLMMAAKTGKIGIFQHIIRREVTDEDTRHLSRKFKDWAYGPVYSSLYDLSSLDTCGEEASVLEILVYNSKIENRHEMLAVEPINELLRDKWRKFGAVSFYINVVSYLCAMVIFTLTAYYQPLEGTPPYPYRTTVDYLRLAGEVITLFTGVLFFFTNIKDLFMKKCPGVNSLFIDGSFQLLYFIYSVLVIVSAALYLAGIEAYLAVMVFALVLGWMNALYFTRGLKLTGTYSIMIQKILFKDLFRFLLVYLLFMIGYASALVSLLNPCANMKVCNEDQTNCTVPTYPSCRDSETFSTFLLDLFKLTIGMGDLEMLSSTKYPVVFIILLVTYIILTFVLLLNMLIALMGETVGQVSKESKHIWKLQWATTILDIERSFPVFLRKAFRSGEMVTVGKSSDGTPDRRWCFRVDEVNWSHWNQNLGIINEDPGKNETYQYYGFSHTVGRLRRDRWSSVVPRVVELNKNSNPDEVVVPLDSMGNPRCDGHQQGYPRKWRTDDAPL

For `CC=CC=CCCC=CC=CC(=O)NCC(C)C` (single isomer, unassigned) [N-Isobutyl-2,4,8,10-dodecatetraenamide isomer], the “AR-Treated Rat Plasma (detection of compound)” value in data set [1] is “+ (The number of plus signs represents the sample number in which the compound was detected among AR-treated rat plasma (n = 1) and MBST-treated rat plasma (n = 3))”. For the same compound, the “MBST-Treated Rat Plasma (detection of compound)” value in data set [1] (rat plasma 1 h after oral 2 g/kg MBST, n = 3, LC-HRMS) was “+ + + (The number of plus signs represents the sample number in which the compound was detected among AR-treated rat plasma (n = 1) and MBST-treated rat plasma (n = 3))”.
For `Oc1ccc(C2OCC3C(c4ccc5c(c4)OCO5)OCC23)cc1O` (stereo not drawn) [(7α,7′β,8α,8′α)-3,4-Methylenedioxy-3′,4′-dihydroxy-7,9′:7′,9-diepoxylignane], the “AR-Treated Rat Plasma (detection of compound)” value in data set [1] was “+ (The number of plus signs represents the sample number in which the compound was detected among AR-treated rat plasma (n = 1) and MBST-treated rat plasma (n = 3))”.
Take `CCN1C[C@]2(COC)[C@H](O)C[C@H](OC)[C@@]34[C@@H]5C[C@@]6(O)[C@H](OC(=O)c7ccccc7)[C@@H]5[C@@](O)([C@@H]([C@H](OC)[C@H]23)[C@@H]14)[C@@H](O)[C@@H]6OC` [Benzoylaconitine]: the “% of Activation Compared to Positive Control against Each Subfamily of TRP Channel TRPV1” value on human TRPV1 is listed as −0.2%. Besides, the “% of Activation Compared to Positive Control against Each Subfamily of TRP Channel TRPA1” value on human TRPA1 was 3%. The “% of Activation Compared to Positive Control against Each Subfamily of TRP Channel TRPM8” value at human TRPM8 was determined as 3.6%. In addition, the “% of Activation Compared to Positive Control against Each Subfamily of TRP Channel TRPV4” value on human TRPV4 came to 0.0%.
In the case of `O.Oc1cc(O)c2c(c1)O[C@H](c1ccc(O)c(O)c1)[C@@H](O)C2` [Catechin], the “% of Activation Compared to Positive Control against Each Subfamily of TRP Channel TRPV1” value at human TRPV1 was −0.3%. For the same compound, the “% of Activation Compared to Positive Control against Each Subfamily of TRP Channel TRPA1” value at human TRPA1 was found to be 6%. Also, the “% of Activation Compared to Positive Control against Each Subfamily of TRP Channel TRPM8” value on human TRPM8 stood at 4.0%. Further, the “% of Activation Compared to Positive Control against Each Subfamily of TRP Channel TRPV4” value on human TRPV4 is listed as 0.3%.
As for `CN[C@@H](C)[C@H](O)c1ccccc1` [Ephedrine, (1R,2S)-(−)-Ephedrine, reference compound], the activation at 10 µM at human TRPV1 was -0.5%; at human TRPA1 it was 3%; on human TRPM8 it was 3.2%; at human TRPV4, -0.4%.
Consider `Oc1cc(O)c2c(c1)O[C@H](c1ccc(O)c(O)c1)[C@H](O)C2` [Epicatechin], for which the activation at 10 µM worked out at 0% on human TRPV1, 6% on human TRPA1, 4.2% at human TRPM8 and 0.6% at human TRPV4.
The corresponding values for `Oc1cc(O)c2c(c1)O[C@H](c1cc(O)c(O)c(O)c1)[C@H](O)C2` [Epigallocatechin] are -0.2%, 2%, 4.8% and 0.1%.
For `O=C(O)CNC(=O)c1ccccc1` [Hippuric acid], the activation at 10 µM on human TRPV1 was 1%; on human TRPA1, 13%; at human TRPM8, 7.5%; on human TRPV4, 2.8%.
Consider `C=C1[C@H]2C[C@@H]3[C@H]4N5C[C@@]6(C)[C@H]7[C@@H]5C[C@]3([C@@H]1O)[C@@](O)(C2)[C@]74C[C@@H](OC(=O)c1ccccc1)[C@@H]6O` [Ignavine], for which the “% of Activation Compared to Positive Control against Each Subfamily of TRP Channel TRPV1” value on human TRPV1 is −0.2%. Also, the “% of Activation Compared to Positive Control against Each Subfamily of TRP Channel TRPA1” value at human TRPA1 was determined as 2%. The “% of Activation Compared to Positive Control against Each Subfamily of TRP Channel TRPM8” value at human TRPM8 was 1.8%. Further, at human TRPV4, the “% of Activation Compared to Positive Control against Each Subfamily of TRP Channel TRPV4” value is −0.1%.
For `O=c1cc(-c2ccc(O)cc2)oc2cc(O)c([C@@H]3O[C@H](CO)[C@@H](O)[C@H](O)[C@H]3O)c(O)c12` [Isovitexin], the activation at 10 µM at human TRPV1 was 0.2%; at human TRPA1 it was 18%; on human TRPM8, 4.3%; at human TRPV4, 2.3%.
Take `CC(C(O)c1ccccc1)[N+](C)(C)[O-]` (stereo not shown) [Methylephedrine N-oxide]: the “% of Activation Compared to Positive Control against Each Subfamily of TRP Channel TRPV1” value on human TRPV1 is listed as 0.3%. In addition, the “% of Activation Compared to Positive Control against Each Subfamily of TRP Channel TRPA1” value at human TRPA1 amounted to 21%. The “% of Activation Compared to Positive Control against Each Subfamily of TRP Channel TRPM8” value at human TRPM8 was 4.5%. Moreover, at human TRPV4, the “% of Activation Compared to Positive Control against Each Subfamily of TRP Channel TRPV4” value is 1.8%.
As for `CN[C@@H](C)[C@@H](O)c1ccccc1` [Pseudoephedrine, (S,S)-(+)-pseudoephedrine, reference compound], the activation at 10 µM is -0.2% at human TRPV1, 4% on human TRPA1, 2.8% on human TRPM8 and -0.3% on human TRPV4.
Consider `O=c1cc(-c2ccc(O)cc2)oc2c([C@@H]3O[C@H](CO)[C@@H](O)[C@H](O)[C@H]3O)c(O)c([C@@H]3O[C@H](CO)[C@@H](O)[C@H](O)[C@H]3O)c(O)c12` [Vicenin-2], for which the “% of Activation Compared to Positive Control against Each Subfamily of TRP Channel TRPV1” value at human TRPV1 amounted to 1.8%. Moreover, the “% of Activation Compared to Positive Control against Each Subfamily of TRP Channel TRPA1” value on human TRPA1 is on record as 25%. In addition, the “% of Activation Compared to Positive Control against Each Subfamily of TRP Channel TRPM8” value on human TRPM8 is 6.5%. Besides, the “% of Activation Compared to Positive Control against Each Subfamily of TRP Channel TRPV4” value at human TRPV4 was determined as 5.0%.
The corresponding values for “(1R,2S)-(−)-N-methylephedrine [reference compound]” are −0.4%, 3%, 3.6% and −0.1%.
The corresponding values for Neoline are −0.4%, 5%, 5.0% and 0.5%.
